Results: the CheMixHub viscosity set

Assay: xn = mol fraction of the nth substance listed

COc1ccccc1 + CCOC(=O)OCC
viscosity [mPa·s], 100 kPa
Details | x2 = 0.1064 | x2 = 0.203 | x2 = 0.3032 | x2 = 0.3994 | x2 = 0.499 | x2 = 0.6007 | x2 = 0.7032 | x2 = 0.7988 | x2 = 0.8975
303.15 K | 0.894 | 0.867 | 0.84 | 0.817 | 0.793 | 0.771 | 0.75 | 0.731 | 0.714
308.15 K | 0.824 | 0.801 | 0.778 | 0.759 | 0.738 | 0.719 | 0.702 | 0.687 | 0.673
313.15 K | 0.767 | 0.748 | 0.729 | 0.711 | 0.694 | 0.677 | 0.662 | 0.649 | 0.636

C1CCOC1 + CCOC(C)=O
101.32 kPa
Details | viscosity [mPa·s]
303.15 K, x2 = 0.0431 | 0.443
303.15 K, x2 = 0.0837 | 0.437
303.15 K, x2 = 0.128 | 0.434
303.15 K, x2 = 0.1718 | 0.431
303.15 K, x2 = 0.2625 | 0.425
303.15 K, x2 = 0.3504 | 0.421
303.15 K, x2 = 0.4521 | 0.416
303.15 K, x2 = 0.6544 | 0.41
303.15 K, x2 = 0.8229 | 0.407
303.15 K, x2 = 0.8817 | 0.407
303.15 K, x2 = 0.9396 | 0.406
313.15 K, x2 = 0.2044 | 0.384
313.15 K, x2 = 0.4059 | 0.375
313.15 K, x2 = 0.5072 | 0.373
313.15 K, x2 = 0.6002 | 0.37
313.15 K, x2 = 0.7996 | 0.369

CC(C)=O + CCOC(C)=O
viscosity [mPa·s], 101 kPa
Details | x2 = 0.0999 | x2 = 0.2009 | x2 = 0.3284 | x2 = 0.4015 | x2 = 0.4977 | x2 = 0.5969 | x2 = 0.6915 | x2 = 0.7908 | x2 = 0.9076
293.15 K | 0.3328 | 0.3471 | 0.3615 | 0.3751 | 0.3871 | 0.4003 | 0.4129 | 0.4274 | 0.4419
298.15 K | 0.317 | 0.3305 | 0.3438 | 0.3563 | 0.3674 | 0.3795 | 0.3913 | 0.4035 | 0.4179
303.15 K | 0.3022 | 0.3151 | 0.3274 | 0.3375 | 0.3502 | 0.3603 | 0.3716 | 0.3825 | 0.3961
313.15 K | 0.2757 | 0.2877 | 0.2982 | 0.3065 | 0.3182 | 0.3262 | 0.3364 | 0.3455 | 0.3573

CCCCn1cc[n+](C)c1.O=S(=O)([O-])C(F)(F)F + CCOC(C)=O
100 kPa
Details | viscosity [mPa·s]
298.15 K, x1 = 0.8932 | 54.68
303.15 K, x1 = 0.3056 | 8.97
308.15 K, x1 = 0.3056 | 7.31
313.15 K, x1 = 0.3056 | 6.63
313.15 K, x1 = 0.3978 | 9.79
318.15 K, x1 = 0.3056 | 5.79
323.15 K, x1 = 0.3056 | 4.97
323.15 K, x1 = 0.3978 | 7.21
323.15 K, x1 = 0.5067 | 9.88

C1CCOC1 + CN(C)C=O
viscosity [mPa·s], 101 kPa
Details | x2 = 0.0988 | x2 = 0.1978 | x2 = 0.2971 | x2 = 0.3967 | x2 = 0.4966 | x2 = 0.5967 | x2 = 0.6971 | x2 = 0.7978 | x2 = 0.8988
298.15 K | 0.47 | 0.482 | 0.496 | 0.518 | 0.547 | 0.586 | 0.63 | 0.679 | 0.737
308.15 K | 0.434 | 0.444 | 0.458 | 0.476 | 0.502 | 0.533 | 0.57 | 0.614 | 0.659
318.15 K | 0.41 | 0.431 | 0.454 | 0.478 | 0.502 | 0.523 | 0.545 | 0.568 | 0.592

CC(C)=O + CN(C)C=O
298.15 K, 101 kPa
Details | viscosity [mPa·s]
x2 = 0.0367 | 0.32
x2 = 0.09776 | 0.343
x2 = 0.136 | 0.369
x2 = 0.2182 | 0.378
x2 = 0.394 | 0.457
x2 = 0.4912 | 0.499
x2 = 0.6429 | 0.565
x2 = 0.8008 | 0.646

CC1COC(=O)O1 (configuration not stated) + CN(C)C=O
101.33 kPa
Details | viscosity [mPa·s]
298.15 K, x1 = 0.1053 | 0.89
298.15 K, x1 = 0.1593 | 0.942
298.15 K, x1 = 0.2227 | 1.004
298.15 K, x1 = 0.2607 | 1.047
298.15 K, x1 = 0.3155 | 1.107
298.15 K, x1 = 0.3624 | 1.164
298.15 K, x1 = 0.4248 | 1.246
298.15 K, x1 = 0.4476 | 1.278
298.15 K, x1 = 0.5094 | 1.37
298.15 K, x1 = 0.5658 | 1.462
298.15 K, x1 = 0.6334 | 1.582
298.15 K, x1 = 0.659 | 1.63
298.15 K, x1 = 0.7108 | 1.742
298.15 K, x1 = 0.7559 | 1.835
298.15 K, x1 = 0.8147 | 1.983
298.15 K, x1 = 0.8705 | 2.117
298.15 K, x1 = 0.9299 | 2.284
298.15 K, x1 = 0.954 | 2.357
308.15 K, x1 = 0.0453 | 0.742
308.15 K, x1 = 0.1078 | 0.787
308.15 K, x1 = 0.1606 | 0.828
308.15 K, x1 = 0.2114 | 0.87
308.15 K, x1 = 0.2565 | 0.91
308.15 K, x1 = 0.2989 | 0.95
308.15 K, x1 = 0.3551 | 1.005
308.15 K, x1 = 0.4045 | 1.058
308.15 K, x1 = 0.4505 | 1.109
308.15 K, x1 = 0.4988 | 1.167
308.15 K, x1 = 0.5351 | 1.213
308.15 K, x1 = 0.6158 | 1.33
308.15 K, x1 = 0.6532 | 1.38
308.15 K, x1 = 0.7153 | 1.48
308.15 K, x1 = 0.7499 | 1.539
308.15 K, x1 = 0.802 | 1.638
308.15 K, x1 = 0.8517 | 1.731
308.15 K, x1 = 0.9033 | 1.841
318.15 K, x1 = 0.049 | 0.664
318.15 K, x1 = 0.0961 | 0.694
318.15 K, x1 = 0.1672 | 0.74
318.15 K, x1 = 0.2118 | 0.772
318.15 K, x1 = 0.2639 | 0.811
318.15 K, x1 = 0.3122 | 0.849
318.15 K, x1 = 0.3528 | 0.884
318.15 K, x1 = 0.4228 | 0.946
318.15 K, x1 = 0.4487 | 0.97
318.15 K, x1 = 0.4941 | 1.015
318.15 K, x1 = 0.5567 | 1.081
318.15 K, x1 = 0.6184 | 1.152
318.15 K, x1 = 0.6678 | 1.216
318.15 K, x1 = 0.7127 | 1.271
318.15 K, x1 = 0.7415 | 1.311
318.15 K, x1 = 0.8179 | 1.424
318.15 K, x1 = 0.8689 | 1.505
318.15 K, x1 = 0.9013 | 1.56
